Experiments:
Type in all cases: cell-based
human TLR9 = biological target: T1, human TLR9 (Homo sapiens, UniProt Q9NR96); test: TLR9 inhibition reporter assay (HEK-Blue cells, SEAP reporter, ODN2006 stimulation); conditions: HEK-Blue cells overexpressing human TLR9, SEAP reporter, ODN2006 5 nM
T1 construct: host or cells: HEK-Blue cells (HEK293-derived reporter line)
T1 sequence (Q9NR96 26-1032): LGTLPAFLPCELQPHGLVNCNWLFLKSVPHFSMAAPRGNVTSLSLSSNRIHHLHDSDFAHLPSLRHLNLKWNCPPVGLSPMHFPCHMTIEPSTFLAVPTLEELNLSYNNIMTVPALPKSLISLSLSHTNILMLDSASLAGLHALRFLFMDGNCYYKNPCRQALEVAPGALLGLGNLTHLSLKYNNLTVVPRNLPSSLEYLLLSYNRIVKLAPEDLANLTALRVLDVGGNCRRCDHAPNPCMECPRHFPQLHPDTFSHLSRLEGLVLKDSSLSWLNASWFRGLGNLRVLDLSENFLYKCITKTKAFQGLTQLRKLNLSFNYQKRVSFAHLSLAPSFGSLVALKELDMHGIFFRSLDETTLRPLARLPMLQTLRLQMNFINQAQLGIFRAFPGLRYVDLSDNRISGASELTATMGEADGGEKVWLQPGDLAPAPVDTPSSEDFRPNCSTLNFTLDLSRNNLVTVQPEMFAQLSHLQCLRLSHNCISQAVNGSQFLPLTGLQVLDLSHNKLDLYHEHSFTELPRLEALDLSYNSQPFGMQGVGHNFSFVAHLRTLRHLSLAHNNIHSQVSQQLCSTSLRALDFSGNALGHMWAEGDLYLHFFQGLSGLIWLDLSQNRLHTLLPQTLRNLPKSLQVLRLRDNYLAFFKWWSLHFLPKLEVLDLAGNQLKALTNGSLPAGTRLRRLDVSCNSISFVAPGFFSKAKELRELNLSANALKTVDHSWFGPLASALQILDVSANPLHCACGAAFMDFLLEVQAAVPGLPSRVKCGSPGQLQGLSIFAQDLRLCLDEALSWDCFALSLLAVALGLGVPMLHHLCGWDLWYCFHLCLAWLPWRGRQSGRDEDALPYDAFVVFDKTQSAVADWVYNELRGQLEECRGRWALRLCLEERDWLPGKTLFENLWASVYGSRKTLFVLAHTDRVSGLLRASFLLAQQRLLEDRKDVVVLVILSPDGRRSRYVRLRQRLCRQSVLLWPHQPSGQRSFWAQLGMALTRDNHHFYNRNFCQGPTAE
Summary of the method: (§1)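 Percent inhibition of agonist-induced SEAP secretion in HEK-Blue cells after 22 h at 37 °C. Stimuli: 7.5 μM gardiquimod, 15.9 μM R848, 5 nM ODN2006 for TLR7, TLR8 and TLR9, added after 30 min compound exposure over a 0.05 nM–50 μM range.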

human TLR8 = biological target: T2, human TLR8 (Homo sapiens, UniProt Q9NR97); test: TLR8 inhibition reporter assay (HEK-Blue cells, SEAP reporter, R848 stimulation); conditions: HEK-Blue cells overexpressing human TLR8, SEAP reporter, R848 15.9 μM
T2 construct: host or cells: HEK-Blue cells (HEK293-derived reporter line)
T2 sequence (Q9NR97 27-1041): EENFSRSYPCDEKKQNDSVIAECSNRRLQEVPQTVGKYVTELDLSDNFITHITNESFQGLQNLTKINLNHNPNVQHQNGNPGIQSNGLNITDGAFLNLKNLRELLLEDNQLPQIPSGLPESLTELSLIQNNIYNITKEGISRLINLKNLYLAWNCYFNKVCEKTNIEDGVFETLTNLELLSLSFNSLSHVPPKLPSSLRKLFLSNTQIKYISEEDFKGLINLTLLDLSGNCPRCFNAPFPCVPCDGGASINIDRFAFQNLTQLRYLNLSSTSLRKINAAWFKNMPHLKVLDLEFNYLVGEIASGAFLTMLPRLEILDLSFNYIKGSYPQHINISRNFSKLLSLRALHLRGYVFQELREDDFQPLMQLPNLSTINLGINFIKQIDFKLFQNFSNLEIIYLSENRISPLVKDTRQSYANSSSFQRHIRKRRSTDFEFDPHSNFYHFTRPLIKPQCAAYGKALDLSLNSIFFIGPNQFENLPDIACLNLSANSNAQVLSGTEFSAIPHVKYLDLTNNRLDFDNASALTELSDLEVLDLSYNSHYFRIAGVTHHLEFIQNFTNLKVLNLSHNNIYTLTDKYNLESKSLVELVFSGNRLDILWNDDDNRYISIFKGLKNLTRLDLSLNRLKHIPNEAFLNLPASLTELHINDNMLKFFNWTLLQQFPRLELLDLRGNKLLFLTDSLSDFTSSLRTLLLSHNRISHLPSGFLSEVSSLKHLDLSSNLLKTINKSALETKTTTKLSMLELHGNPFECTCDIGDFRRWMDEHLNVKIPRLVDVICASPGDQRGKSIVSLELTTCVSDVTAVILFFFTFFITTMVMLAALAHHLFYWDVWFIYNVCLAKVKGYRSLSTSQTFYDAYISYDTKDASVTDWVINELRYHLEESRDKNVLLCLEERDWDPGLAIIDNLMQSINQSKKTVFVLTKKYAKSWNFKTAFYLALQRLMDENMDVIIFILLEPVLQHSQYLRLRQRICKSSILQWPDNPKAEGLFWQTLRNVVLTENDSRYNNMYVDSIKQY
Summary of the method: as §1

human TLR7 = biological target: T3, human TLR7 (Homo sapiens, UniProt Q9NYK1); test: TLR7 inhibition reporter assay (HEK-Blue cells, SEAP reporter, gardiquimod stimulation); conditions: HEK-Blue cells overexpressing human TLR7, SEAP reporter, gardiquimod 7.5 μM
T3 construct: host or cells: HEK-Blue cells (HEK293-derived reporter line)
T3 sequence (Q9NYK1 27-1049): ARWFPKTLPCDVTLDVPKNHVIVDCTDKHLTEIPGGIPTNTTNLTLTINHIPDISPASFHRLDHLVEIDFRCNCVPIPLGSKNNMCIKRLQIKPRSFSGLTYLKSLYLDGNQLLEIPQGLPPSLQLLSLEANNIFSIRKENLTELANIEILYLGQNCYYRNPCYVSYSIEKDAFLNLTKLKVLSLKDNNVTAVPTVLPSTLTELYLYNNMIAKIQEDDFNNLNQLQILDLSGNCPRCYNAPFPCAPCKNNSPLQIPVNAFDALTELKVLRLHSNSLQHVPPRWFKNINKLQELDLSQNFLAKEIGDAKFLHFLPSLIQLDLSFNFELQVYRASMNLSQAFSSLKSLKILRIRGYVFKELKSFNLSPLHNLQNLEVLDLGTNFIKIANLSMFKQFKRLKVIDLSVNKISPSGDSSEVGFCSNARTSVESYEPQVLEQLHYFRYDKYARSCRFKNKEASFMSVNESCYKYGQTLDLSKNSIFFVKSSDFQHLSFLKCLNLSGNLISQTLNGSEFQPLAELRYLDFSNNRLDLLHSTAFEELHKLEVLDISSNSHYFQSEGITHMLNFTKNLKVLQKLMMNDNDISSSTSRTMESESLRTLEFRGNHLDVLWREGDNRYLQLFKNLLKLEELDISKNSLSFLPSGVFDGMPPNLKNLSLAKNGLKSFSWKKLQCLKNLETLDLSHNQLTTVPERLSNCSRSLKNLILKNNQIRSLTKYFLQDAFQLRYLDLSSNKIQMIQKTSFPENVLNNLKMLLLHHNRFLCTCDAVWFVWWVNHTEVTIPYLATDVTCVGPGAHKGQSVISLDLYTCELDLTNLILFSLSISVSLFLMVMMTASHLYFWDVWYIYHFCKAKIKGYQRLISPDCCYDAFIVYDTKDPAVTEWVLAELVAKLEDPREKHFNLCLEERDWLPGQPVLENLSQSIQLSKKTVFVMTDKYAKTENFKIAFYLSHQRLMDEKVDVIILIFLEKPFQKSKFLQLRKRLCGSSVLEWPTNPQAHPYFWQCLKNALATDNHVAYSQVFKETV
Summary of the method: as §1

Question: With Cc1cn2cc(-c3[nH]c4ccc(C5CCNCC5)cc4c3C(C)C)cc(C(F)(F)F)c2n1 [Example 137, 6-(3-isopropyl-5-(piperidin-4-yl)-1H-indol-2-yl)-2-methyl-8-(trifluoromethyl)imidazo[1,2-a]pyridine] as the compound, how does the IC50 (human TLR9) read?
Answer: 100 to 1000 nM

Question: And the IC50 (human TLR8)?
Answer: 100 to 1000 nM

Question: What about the IC50 (human TLR7) of the same compound?
Answer: < 100 nM

Question: Which IC50 (human TLR9) does the source give for CC(C)c1c(-c2ccnc3[nH]ncc23)[nH]c2ccc(C3CCN(Cc4ccc(OCCCN(C)C)cc4)CC3)cc12 [Example 965, 3-(4-((4-(3-isopropyl-2-(1H-pyrazolo[3,4-b]pyridin-4-yl)-1H-indol-5-yl)piperidin-1-yl)methyl)phenoxy)-N,N-dimethylpropan-1-amine] here?
Answer: 100 to 1000 nM

Question: And the IC50 (human TLR8)?
Answer: < 100 nM

Question: And the IC50 (human TLR7)?
Answer: < 100 nM

Question: Which IC50 (human TLR9) does the source give for COCCN1CCC(c2ccc3[nH]c(-c4cc(C)n5ncnc5c4)c(C(C)C)c3c2)CC1 [Example 779, 7-(3-isopropyl-5-(1-(2-methoxyethyl)piperidin-4-yl)-1H-indol-2-yl)-5-methyl-[1,2,4]triazolo[1,5-a]pyridine] here?
Answer: 1000 to 50000 nM

Question: And the IC50 (human TLR8)?
Answer: < 100 nM

Question: And the IC50 (human TLR7)?
Answer: < 100 nM

Question: Which results are given for CC(C)c1c(-c2cn(C)c3ncccc23)[nH]c2ccc(C3CCN(C(=O)CN(C)C)CC3)cc12 [Example 463, 2-(dimethylamino)-1-(4-(3-isopropyl-2-(1-methyl-1H-pyrrolo[2,3-b]pyridin-3-yl)-1H-indol-5-yl)piperidin-1-yl)ethan-1-one]?
Answer: IC50 (human TLR9): 1000 to 50000 nM; IC50 (human TLR8): < 100 nM; IC50 (human TLR7): < 100 nM

Question: Which results are given for COc1ccc(CN2CCC(c3ccc4[nH]c(-c5ccc6nccn6c5)c(C(C)C)c4c3)CC2)cn1 [Example 935, 6-(3-isopropyl-5-(1-((6-methoxypyridin-3-yl)methyl)piperidin-4-yl)-1H-indol-2-yl)imidazo[1,2-a]pyridine]?
Answer: IC50 (human TLR9): 100 to 1000 nM; IC50 (human TLR8): < 100 nM; IC50 (human TLR7): < 100 nM

Question: Which results are given for Cc1cc(-c2[nH]c3ccc(C4CCN(C(=O)CN(C)C)CC4)cc3c2C(C)C)c2ccccc2n1 [Example 533, 2-(dimethylamino)-1-(4-(3-isopropyl-2-(2-methylquinolin-4-yl)-1H-indol-5-yl)piperidin-1-yl)ethan-1-one]?
Answer: IC50 (human TLR9): 100 to 1000 nM; IC50 (human TLR8): < 100 nM; IC50 (human TLR7): < 100 nM

Question: With CC(C)c1c(-c2ccnc3[nH]cc(O)c23)[nH]c2ccc(C3CCNCC3)cc12 [Example 216, 4-(3-isopropyl-5-(piperidin-4-yl)-1H-indol-2-yl)-1H-pyrrolo[2,3-b]pyridin-3-ol] as the compound, how does the IC50 (human TLR9) read?
Answer: 1000 to 50000 nM

Question: What about the IC50 (human TLR8) of the same compound?
Answer: 100 to 1000 nM

Question: And the IC50 (human TLR7)?
Answer: 1000 to 50000 nM

Question: Which results are given for CC(C)c1c(-c2ccc3occc3c2)[nH]c2ccc(C3CCNCC3)cc12 [Example 67, 2-(benzofuran-5-yl)-3-isopropyl-5-(piperidin-4-yl)-1H-indole]?
Answer: IC50 (human TLR9): 1000 to 50000 nM; IC50 (human TLR8): 100 to 1000 nM; IC50 (human TLR7): 100 to 1000 nM

Question: Which IC50 (human TLR9) does the source give for CC(C)(O)CC(=O)N1CCC(c2ccc3[nH]c(-c4cc(F)c5nccn5c4)c(CC(F)F)c3c2)CC1 [Example 606, 1-(4-(3-(2,2-difluoroethyl)-2-(8-fluoroimidazo[1,2-a]pyridin-6-yl)-1H-indol-5-yl)piperidin-1-yl)-3-hydroxy-3-methylbutan-1-one] here?
Answer: 1000 to 50000 nM

Question: And the IC50 (human TLR8)?
Answer: > 3130 nM

Question: And the IC50 (human TLR7)?
Answer: 100 to 1000 nM

Question: How did the IC50 (human TLR9) turn out when CNC(=O)CN1CCC(c2ccc3[nH]c(-c4cc(C)c5c(cnn5C)c4)c(C(C)C)c3c2)CC1 [Example 364, 2-(4-(2-(1,7-dimethyl-1H-indazol-5-yl)-3-isopropyl-1H-indol-5-yl)piperidin-1-yl)-N-methylacetamide] was run?
Answer: 1000 to 50000 nM

Question: What about the IC50 (human TLR8) of the same compound?
Answer: > 3130 nM

Question: And the IC50 (human TLR7)?
Answer: 100 to 1000 nM

Question: Which IC50 (human TLR9) does the source give for CC(C)c1c(-c2ccnc3[nH]ncc23)[nH]c2ccc(C3CCN(C(=O)CN4CC[C@@H](N(C)C)C4)CC3)cc12 [Example 582, (R)-2-(3-(dimethylamino)pyrrolidin-1-yl)-1-(4-(3-isopropyl-2-(1H-pyrazolo[3,4-b]pyridin-4-yl)-1H-indol-5-yl)piperidin-1-yl)ethan-1-one] here?
Answer: 100 to 1000 nM

Question: And the IC50 (human TLR8)?
Answer: < 100 nM

Question: And the IC50 (human TLR7)?
Answer: < 100 nM

Question: With Cc1cc(-c2[nH]c3ccc(C4CCNCC4)cc3c2C(C)C)cc2nccnc12 [Example 88, 7-(3-isopropyl-5-(piperidin-4-yl)-1H-indol-2-yl)-5-methylquinoxaline] as the compound, how does the IC50 (human TLR9) read?
Answer: 1000 to 50000 nM

Question: And the IC50 (human TLR8)?
Answer: 100 to 1000 nM

Question: What about the IC50 (human TLR7) of the same compound?
Answer: < 100 nM

Question: Cc1cc(-c2[nH]c3ccc(C4CCN(CC(=O)N(C)C)CC4)cc3c2C(C)C)cc2ncnn12 [Example 324, 2-(4-(3-isopropyl-2-(5-methyl-[1,2,4]triazolo[1,5-a]pyridin-7-yl)-1H-indol-5-yl)piperidin-1-yl)-N,N-dimethylacetamide] was tested. Which IC50 (human TLR9) did it give?
Answer: 1000 to 50000 nM

Question: What about the IC50 (human TLR8) of the same compound?
Answer: < 100 nM

Question: What about the IC50 (human TLR7) of the same compound?
Answer: < 100 nM

Question: With CCc1c(C)c(-c2[nH]c3ccc(C4CCN(CC(C)(C)O)CC4)cc3c2C(C)C)cn2ccnc12 [Example 777, 1-(4-(2-(8-ethyl-7-methylimidazo[1,2-a]pyridin-6-yl)-3-isopropyl-1H-indol-5-yl)piperidin-1-yl)-2-methylpropan-2-ol] as the compound, how does the IC50 (human TLR9) read?
Answer: 100 to 1000 nM

Question: And the IC50 (human TLR8)?
Answer: < 100 nM

Question: What about the IC50 (human TLR7) of the same compound?
Answer: < 100 nM

Reference: patent US11739098B2 (BRISTOL-MYERS SQUIBB COMPANY, priority 2017, dated 2023)
